Experimental data as given in patent US20170190726A9, “PRODRUG FOR RELEASE OF CISPLATIN AND CYCLOOXYGENASE INHIBITOR” (priority 2013, published 2017).

Target: T1, ovine COX-2 (Ovis aries, UniProt P79208)
T1 construct: purchased Cayman Chemicals 560101
T1 sequence (P79208 17-603): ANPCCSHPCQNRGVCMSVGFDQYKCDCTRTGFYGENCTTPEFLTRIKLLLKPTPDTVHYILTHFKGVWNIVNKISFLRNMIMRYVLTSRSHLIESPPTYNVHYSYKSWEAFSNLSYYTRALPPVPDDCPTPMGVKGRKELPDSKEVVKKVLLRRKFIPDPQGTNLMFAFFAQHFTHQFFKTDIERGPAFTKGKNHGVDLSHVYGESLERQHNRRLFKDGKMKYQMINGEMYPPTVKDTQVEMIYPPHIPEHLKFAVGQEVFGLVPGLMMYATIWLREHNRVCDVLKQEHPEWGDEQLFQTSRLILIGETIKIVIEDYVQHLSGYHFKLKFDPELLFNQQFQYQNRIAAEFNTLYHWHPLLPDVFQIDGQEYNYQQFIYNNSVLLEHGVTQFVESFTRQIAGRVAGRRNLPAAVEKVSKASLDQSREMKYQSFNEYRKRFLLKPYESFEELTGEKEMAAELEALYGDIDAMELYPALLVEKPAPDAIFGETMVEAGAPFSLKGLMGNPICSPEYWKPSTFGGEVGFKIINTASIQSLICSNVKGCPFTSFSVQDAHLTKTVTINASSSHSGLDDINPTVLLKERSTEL
Test: In vitro COX inhibition assay (EIA), COX-2
Assay type: biochemical
Settings: ovine COX-2, EIA, 0.75-2 mM, aspirin as positive control
Protocol: An enzyme immunoassay (EIA) kit from Cayman Chemicals (catalogue number 560101) was used to assess the ability of Platin-A to inhibit ovine COX-1 and COX-2. COX inhibition assay was performed as per the manufacturer protocol. All stock solutions were prepared following manufactures instruction. This inhibition assay was carried out using a two-step process: COX reaction and EIA. COX reaction involved preparation of following samples.
(i) Background samples: COX-1 and COX-2 were inactivated by transferring 20 μL of each enzyme to an eppendorf tube and placing the tube in boiling water for 3 min. […] (ii) COX-1 or COX-2 100% initial activity samples: 950 μL of reaction buffer, 10 μL of heme, 10 μL of COX-1 or COX-2, and 20 μL of reaction buffer were added to each test tube. (iii) COX-1 or COX-2 inhibitor samples: 950 μL of reaction buffer, 10 μL of heme, 10 μL of COX-1 or COX-2 and 20 μL of COX-1 and COX-2 inhibitors under investigation, aspirin and Platin-A of different concentrations (0.25, 0.5, 0.75, 1, and 1.5 mM for COX-1; 0.75, 1, 1.25, 1.5, and 2 mM for COX-2) were added to each test tube.
All the samples were incubated for 5 min in water bath at 37° C. […]
For EIA, 100 μL of EIA buffer was added to non-specific binding well and 50 μL of EIA buffer to maximum binding wells. […] Absorbance was recorded at a wavelength of 410 nm using a plate reader.

CC(=O)Oc1ccccc1C(=O)[O][Pt]([NH2])([NH2])([OH])([Cl])[Cl] [Platin-A]
COX-2 inhibition: very similar inhibition of both COX-1 and COX-2 as shown by aspirin
